Source: ChEMBL document CHEMBL5550172 (Eur J Med Chem, 2024)

How the values were obtained:
Histone deacetylase 1 = Histone deacetylase 1 (Homo sapiens, UniProt Q13547); assay: Inhibition of recombinant human HDAC1 using Ac-Val-Gly-(NAc)Lys-AMC as substrate incubated for 30 mins by fluorescence based assay
[1] = target: T1, Protein deacetylase HDAC6 (Homo sapiens, UniProt Q9UBN7); assay: Inhibition of recombinant human HDAC6 using Ac-Val-Gly-(NAc)Lys-AMC as substrate incubated for 30 mins by fluorescence based assay
T1 sequence (Q9UBN7 whole entry): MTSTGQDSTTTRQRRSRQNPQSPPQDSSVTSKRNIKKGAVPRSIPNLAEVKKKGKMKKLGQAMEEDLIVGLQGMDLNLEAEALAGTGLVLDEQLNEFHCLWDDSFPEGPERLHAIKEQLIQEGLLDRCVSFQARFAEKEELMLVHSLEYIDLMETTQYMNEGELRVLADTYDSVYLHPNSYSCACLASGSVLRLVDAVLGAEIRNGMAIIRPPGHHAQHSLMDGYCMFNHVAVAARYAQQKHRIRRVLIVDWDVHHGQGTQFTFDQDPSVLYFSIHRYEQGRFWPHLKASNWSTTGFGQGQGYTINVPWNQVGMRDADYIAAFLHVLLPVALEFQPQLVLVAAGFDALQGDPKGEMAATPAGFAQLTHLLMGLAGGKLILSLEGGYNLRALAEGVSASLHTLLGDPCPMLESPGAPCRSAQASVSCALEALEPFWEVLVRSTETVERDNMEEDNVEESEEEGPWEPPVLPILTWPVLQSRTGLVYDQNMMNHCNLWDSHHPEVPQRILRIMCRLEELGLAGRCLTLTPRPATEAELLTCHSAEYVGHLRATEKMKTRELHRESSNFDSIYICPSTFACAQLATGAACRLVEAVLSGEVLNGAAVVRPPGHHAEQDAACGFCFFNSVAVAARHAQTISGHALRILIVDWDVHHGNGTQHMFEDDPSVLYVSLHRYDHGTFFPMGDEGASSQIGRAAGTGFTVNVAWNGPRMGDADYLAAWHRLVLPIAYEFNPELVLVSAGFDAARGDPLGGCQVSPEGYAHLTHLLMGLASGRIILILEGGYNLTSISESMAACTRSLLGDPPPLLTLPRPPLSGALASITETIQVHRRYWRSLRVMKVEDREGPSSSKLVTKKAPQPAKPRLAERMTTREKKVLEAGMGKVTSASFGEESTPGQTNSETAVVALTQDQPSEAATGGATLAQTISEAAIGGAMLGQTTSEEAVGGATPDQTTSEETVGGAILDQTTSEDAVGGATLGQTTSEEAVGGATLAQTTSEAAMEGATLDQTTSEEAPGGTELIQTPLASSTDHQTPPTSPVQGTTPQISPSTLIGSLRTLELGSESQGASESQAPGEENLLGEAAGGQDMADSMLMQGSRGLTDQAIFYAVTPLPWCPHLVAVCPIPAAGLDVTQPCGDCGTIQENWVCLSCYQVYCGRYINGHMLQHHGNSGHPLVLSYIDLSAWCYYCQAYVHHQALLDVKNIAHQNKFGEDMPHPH

MCF7 = assay: Antiproliferative activity against human MCF7 cells expressing ER assessed as inhibition of cell viability at high concentration incubated for 12 days with every 3 day treatment by Alamar blue staining based assay relative to control; format: functional; settings: time 12 day

Chain of Histone deacetylase 1 (Q13547 whole entry): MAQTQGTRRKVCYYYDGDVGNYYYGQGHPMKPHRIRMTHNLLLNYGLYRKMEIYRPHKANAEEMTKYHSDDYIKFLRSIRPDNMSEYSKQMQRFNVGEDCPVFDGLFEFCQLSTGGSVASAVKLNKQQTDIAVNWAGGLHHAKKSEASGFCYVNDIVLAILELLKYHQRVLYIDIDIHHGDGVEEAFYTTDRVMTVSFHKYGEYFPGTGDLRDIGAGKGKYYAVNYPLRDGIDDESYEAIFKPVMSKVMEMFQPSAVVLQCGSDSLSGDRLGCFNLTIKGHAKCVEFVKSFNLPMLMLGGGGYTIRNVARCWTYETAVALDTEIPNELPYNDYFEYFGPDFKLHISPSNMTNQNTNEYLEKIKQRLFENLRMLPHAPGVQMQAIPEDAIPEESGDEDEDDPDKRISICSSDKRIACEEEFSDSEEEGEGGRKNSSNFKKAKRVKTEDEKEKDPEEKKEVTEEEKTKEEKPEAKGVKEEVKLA

SMILES | IC50 (Histone deacetylase 1) [nM] | IC50 [1] [nM] | inhibition (INH) (MCF7) [%]
O=C(CCCCCc1ccc(-c2sc3cc(O)ccc3c2C(=O)c2ccc(OCCN3CCCCC3)cc2)cc1)NO | 12 | 297 | 
O=C(CCc1ccc(-c2sc3cc(O)ccc3c2C(=O)c2ccc(OCCN3CCCCC3)cc2)cc1)NO | 464 | 202 | 100
O=C(CCCCc1ccc(-c2sc3cc(O)ccc3c2C(=O)c2ccc(OCCN3CCCCC3)cc2)cc1)NO | 257 | 221 | 
O=C(CCCCCCc1ccc(-c2sc3cc(O)ccc3c2C(=O)c2ccc(OCCN3CCCCC3)cc2)cc1)NO | 344 | 333 | 

More lines, in order of falling IC50 (Histone deacetylase 1), values ahead:

IC50 (Histone deacetylase 1) [nM] | IC50 [1] [nM] | SMILES | inhibition (INH) (MCF7) [%]
5990 | 91 | O=C(CCCOc1ccc(-c2sc3cc(O)ccc3c2C(=O)c2ccc(OCCN3CCCCC3)cc2)cc1)NO | 100
389 | 123 | O=C(CCCCOc1ccc(-c2sc3cc(O)ccc3c2C(=O)c2ccc(OCCN3CCCCC3)cc2)cc1)NO | 
132 | 21 | O=C(CCCCCOc1ccc(-c2sc3cc(O)ccc3c2C(=O)c2ccc(OCCN3CCCCC3)cc2)cc1)NO | 
